Data as given in patent US9334265B2, “3-amino-pyrazole derivatives useful against tuberculosis” (GLAXO GROUP LIMITED, priority 2010, dated 2016).
Converted amounts (≈) assume the structure as drawn. “And” between values parts separate entries of the source, which are not always exact repeats. Identical values can stand only once. Like-named read-outs stand apart in the source and are kept apart here.

What was measured:
[1] = system: Mycobacterium tuberculosis H37Rv; test: Mycobacterium tuberculosis H37Rv Inhibition Assay (Whole Cell Assay); assay type: cell-based; conditions: ATCC 25618 / H37Rv, H37Rv strain (ATCC25618), Middlebrook 7H9, six days at 37° C., resazurin fluorescence after 48 hours
[2] = target: T1, InhA (Mycobacterium tuberculosis, UniProt P9WGR1); test: Mycobacterium tuberculosis InhA Inhibition Assay (Enzyme Assay); assay type: biochemical; conditions: 5 nM InhA, 50 μM DDCoA, 50 μM NADH, PIPES buffer pH 6.8, initial velocities of NADH consumption
T1 construct: made in house; host or cells: E. coli
Protocol: InhA is able to reduce 2-trans enoyl-CoA esters with concomitant oxidation of NADH to NAD^+. The assay format is based on the kinetic detection of NADH consumption.
Assay for InhA inhibition is carried out with mycobacterium recombinant protein expressed and purified form E. coli. Standard assay conditions for the determination of kinetic constants and inhibitors activity use 5 nM of InhA, 50 μM of Dodecenoyl-CoA synthesized and purified as described by Quémard et al (DDCoA) and 50 μM of NADH as substrates, and it is carried out in 30 mM PIPES buffer pH 6.8, containing 0.05% of BSA. […] Triclosan is used as positive control in every experiment. One μl of compounds is added to the wells containing 25 μl of the DDCoA+NADH mix, the reaction is started by adding 50 μl of the enzyme solution. Fluorescence from NADH is followed at room temperature during 20 minutes in a fluorescent plate reader (excitation at 340 nm; emission at 480 nm). IC50 values are determined using initial velocities of NADH consumption. • Quémard A, Sacchettini J C, Dessen A, et al. Enzymatic characterization of the target for isoniazid in Mycobacterium tuberculosis. Biochemistry 1995; 34:8235-41. Results of the Mycobacterium tuberculosis InhA Inhibition Assay (Enzyme Assay)

T1 sequence (P9WGR1 whole entry, looked up): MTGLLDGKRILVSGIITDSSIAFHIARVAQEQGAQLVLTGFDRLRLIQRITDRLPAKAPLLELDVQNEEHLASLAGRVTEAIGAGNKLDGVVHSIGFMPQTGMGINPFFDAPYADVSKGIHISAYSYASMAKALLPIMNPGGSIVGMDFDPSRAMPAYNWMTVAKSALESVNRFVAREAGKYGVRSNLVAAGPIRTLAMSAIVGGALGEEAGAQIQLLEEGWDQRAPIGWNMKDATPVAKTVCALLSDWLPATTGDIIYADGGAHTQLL

SMILES | MIC [1] [µM] | IC50 ([2]; read-out: IC50 value) [µM] | IC50 ([2]; IC50 value)
Cc1ccn(C(C)c2nnc(Nc3ccn(Cc4ncccc4F)n3)s2)n1 (racemic) [Example 13, N-{1-[(3-fluoro-2-pyridinyl)methyl]-1H-pyrazol-3-yl}-5-[1-(3-methyl-1H-pyrazol-1-yl)ethyl]-1,3,4-thiadiazol-2-amine] | ≤ 4 | ≤ 0.13 | –
Cc1csc(C(C)(O)c2nnc(Nc3ccn(Cc4csc(C)n4)n3)s2)n1 (racemic) [Example 21, 1-(4-methyl-1,3-thiazol-2-yl)-1-[5-({1-[(2-methyl-1,3-thiazol-4-yl)methyl]-1H-pyrazol-3-yl}amino)-1,3,4-thiadiazol-2-yl]ethanol] | ≤ 1 | ≤ 0.119 | –
Cc1csc(C(C)(O)c2nnc(Nc3ccn(Cc4ncccc4F)n3)s2)n1 (racemic) [Example 38, 1-[5-({1-[(3-fluoro-2-pyridinyl)methyl]-1H-pyrazol-3-yl}amino)-1,3,4-thiadiazol-2-yl]-1-(4-methyl-1,3-thiazol-2-yl)ethanol] | ≤ 1 | ≤ 0.12 | –
Cc1ccn([C@H](C)c2nnc(Nc3ccn(Cc4ncccc4F)n3)s2)n1 (single isomer, unassigned) [Example 39] | > 10 | – | 0.26 to 1.3 µM
Cc1ccn([C@@H](C)c2nnc(Nc3ccn(Cc4ncccc4F)n3)s2)n1 (single isomer, unassigned) [Example 40] | ≤ 4 | – | ≤ 0.13 µM
Cc1csc([C@](C)(O)c2nnc(Nc3ccn(Cc4ncccc4F)n3)s2)n1 (single isomer, unassigned) [Example 41] | ≤ 1 | – | ≤ 0.12 µM
Cc1csc([C@@](C)(O)c2nnc(Nc3ccn(Cc4ncccc4F)n3)s2)n1 (single isomer, unassigned) [Example 42] | > 10 | – | 0.24 to 1.2 µM
Cc1csc([C@](C)(O)c2nnc(Nc3ccn(Cc4csc(C)n4)n3)s2)n1 (single isomer, unassigned) [Example 43] | – | – | ≤ 0.119 µM
Cc1csc([C@@](C)(O)c2nnc(Nc3ccn(Cc4csc(C)n4)n3)s2)n1 (single isomer, unassigned) [Example 44] | > 10 | – | 0.238 to 1.19 µM
Cc1cccc(Cn2ccc(Nc3nnc(C(C)n4nc(C)cc4C)s3)n2)n1 (stereo not drawn) [Example 1, 5-[1-(3,5-dimethyl-1H-pyrazol-1-yl)ethyl]-N-{1-[(6-methyl-2-pyridinyl)methyl]-1H-pyrazol-3-yl}-1,3,4-thiadiazol-2-amine] | > 10 | ≤ 0.127 | –
Cc1cc(C)n(C(C)c2nnc(Nc3ccn(Cc4nccc(C)c4F)n3)s2)n1 (stereo not drawn) [Example 2, 5-[1-(3,5-dimethyl-1H-pyrazol-1-yl)ethyl]-N-{1-[(3-fluoro-4-methyl-2-pyridinyl)methyl]-1H-pyrazol-3-yl}-1,3,4-thiadiazol-2-amine] | ≤ 4 | ≤ 0.121 | –
Cc1ccn(C(C)c2nnc(Nc3ccn(Cc4nccc(C)c4F)n3)s2)n1 (stereo not drawn) [Example 3, N-{1-[(3-fluoro-4-methyl-2-pyridinyl)methyl]-1H-pyrazol-3-yl}-5-[1-(3-methyl-1H-pyrazol-1-yl)ethyl]-1,3,4-thiadiazol-2-amine] | > 10 | ≤ 0.125 | –
Cc1cc(C)n(C(C)c2nnc(Nc3ccn(Cc4cccnc4)n3)s2)n1 (stereo not drawn) [Example 4, 5-[1-(3,5-dimethyl-1H-pyrazol-1-yl)ethyl]-N-[1-(3-pyridinylmethyl)-1H-pyrazol-3-yl]-1,3,4-thiadiazol-2-amine] | > 10 | ≤ 0.131 | –
Cc1cc(C)n(C(C)c2nnc(Nc3ccn(Cc4ccccn4)n3)s2)n1 (stereo not drawn) [Example 5, 5-[1-(3,5-dimethyl-1H-pyrazol-1-yl)ethyl]-N-[1-(2-pyridinylmethyl)-1H-pyrazol-3-yl]-1,3,4-thiadiazol-2-amine] | > 10 | – | 0.263 to 1.31 µM
Cc1cc(C)n(C(C)c2nnc(Nc3ccn(Cc4ncccc4F)n3)s2)n1 (stereo not drawn) [Example 6, 5-[1-(3,5-dimethyl-1H-pyrazol-1-yl)ethyl]-N-{1-[(3-fluoro-2-pyridinyl)methyl]-1H-pyrazol-3-yl}-1,3,4-thiadiazol-2-amine] | ≤ 4 | ≤ 0.125 | –
Cc1cc(C)n(C(C)c2nnc(Nc3ccn(Cc4cccnc4F)n3)s2)n1 (stereo not drawn) [Example 7, 5-[1-(3,5-dimethyl-1H-pyrazol-1-yl)ethyl]-N-{1-[(2-fluoro-3-pyridinyl)methyl]-1H-pyrazol-3-yl}-1,3,4-thiadiazol-2-amine] | 4 to 10 (≈ 1.59 to 3.98 µg/mL) | ≤ 0.125 | –
Cc1cc(C)n(C(C)c2nnc(Nc3ccn(Cc4cnc(C)c(Cl)c4)n3)s2)n1 (stereo not drawn) [Example 8, N-{1-[(5-chloro-6-methyl-3-pyridinyl)methyl]-1H-pyrazol-3-yl}-5-[1-(3,5-dimethyl-1H-pyrazol-1-yl)ethyl]-1,3,4-thiadiazol-2-amine] | > 10 | ≤ 0.117 | –
Cc1cc(C)n(C(C)c2nnc(Nc3ccn(Cc4ncc(Cl)cc4Cl)n3)s2)n1 (stereo not drawn) [Example 9, N-{1-[(3,5-dichloro-2-pyridinyl)methyl]-1H-pyrazol-3-yl}-5-[1-(3,5-dimethyl-1H-pyrazol-1-yl)ethyl]-1,3,4-thiadiazol-2-amine] | > 10 | ≤ 0.111 | –
Cc1ccn(C(C)c2nnc(Nc3ccn(Cc4cccnc4F)n3)s2)n1 (stereo not drawn) [Example 10, N-{1-[(2-fluoro-3-pyridinyl)methyl]-1H-pyrazol-3-yl}-5-[1-(3-methyl-1H-pyrazol-1-yl)ethyl]-1,3,4-thiadiazol-2-amine] | > 10 | – | 0.13 to 0.26 µM
CCOc1ncccc1Cn1ccc(Nc2nnc(C(C)n3nc(C)cc3C)s2)n1 (stereo not drawn) [Example 11, 5-[1-(3,5-dimethyl-1H-pyrazol-1-yl)ethyl]-N-(1-{[2-(ethyloxy)-3-pyridinyl]methyl}-1H-pyrazol-3-yl)-1,3,4-thiadiazol-2-amine] | > 10 | – | > 1.18 µM
Cc1csc(C(C)(O)c2nnc(Nc3ccn(Cc4ncc(F)cc4F)n3)s2)n1 (stereo not drawn) [Example 12, 1-[5-({1-[(3,5-difluoro-2-pyridinyl)methyl]-1H-pyrazol-3-yl}amino)-1,3,4-thiadiazol-2-yl]-1-(4-methyl-1,3-thiazol-2-yl)ethanol] | ≤ 4 | – | 0.115 to 0.23 µM
Cc1csc(C(C)(O)c2nnc(Nc3ccn(Cc4ncccc4C)n3)s2)n1 (stereo not drawn) [Example 14, 1-[5-({1-[(3-methyl-2-pyridinyl)methyl]-1H-pyrazol-3-yl}amino)-1,3,4-thiadiazol-2-yl]-1-(4-methyl-1,3-thiazol-2-yl)ethanol] | ≤ 1 | – | ≤ 0.121 µM and 0.00967 µM
Cc1csc(C(C)(O)c2nnc(Nc3ccn(Cc4ccc5ccccc5n4)n3)s2)n1 (stereo not drawn) [Example 15, 1-(4-methyl-1,3-thiazol-2-yl)-1-(5-{[1-(2-quinolinylmethyl)-1H-pyrazol-3-yl]amino}-1,3,4-thiadiazol-2-yl)ethanol] | ≤ 4 | ≤ 0.111 | –
Cc1csc(C(C)(O)c2nnc(Nc3ccn(Cc4ncccc4O)n3)s2)n1 (stereo not drawn) [Example 16, 2-{[3-({5-[1-hydroxy-1-(4-methyl-1,3-thiazol-2-yl)ethyl]-1,3,4-thiadiazol-2-yl}amino)-1H-pyrazol-1-yl]methyl}-3-pyridinol] | > 10 | – | –
Cc1csc(C(C)(O)c2nnc(Nc3ccn(Cc4csc(N)n4)n3)s2)n1 (stereo not drawn) [Example 17, 1-[5-({1-[(2-amino-1,3-thiazol-4-yl)methyl]-1H-pyrazol-3-yl}amino)-1,3,4-thiadiazol-2-yl]-1-(4-methyl-1,3-thiazol-2-yl)ethanol] | > 10 | – | 0.238 to 1.19 µM
